Measured values as given in the kinase profiling compilation of Christmann-Franck et al. (2016).

How the values were obtained:
Assay in all cases: radiometric filter-binding kinase assay
[1] = system: AKT2 (human), P31751 [S474D]
[2] = molecular target: BRSK1 (human) (UniProt Q8TDC3)
[3] = molecular target: CAMKK2 (human) (UniProt Q96RR4)
[4] = molecular target: CLK2 (human) (UniProt P49760)
[5] = molecular target: CSK (human) (UniProt P41240)
[6] = molecular target: CSNK1D (human) (UniProt P48730)
Sequence of CSNK1D (human) (P48730 whole entry, looked up): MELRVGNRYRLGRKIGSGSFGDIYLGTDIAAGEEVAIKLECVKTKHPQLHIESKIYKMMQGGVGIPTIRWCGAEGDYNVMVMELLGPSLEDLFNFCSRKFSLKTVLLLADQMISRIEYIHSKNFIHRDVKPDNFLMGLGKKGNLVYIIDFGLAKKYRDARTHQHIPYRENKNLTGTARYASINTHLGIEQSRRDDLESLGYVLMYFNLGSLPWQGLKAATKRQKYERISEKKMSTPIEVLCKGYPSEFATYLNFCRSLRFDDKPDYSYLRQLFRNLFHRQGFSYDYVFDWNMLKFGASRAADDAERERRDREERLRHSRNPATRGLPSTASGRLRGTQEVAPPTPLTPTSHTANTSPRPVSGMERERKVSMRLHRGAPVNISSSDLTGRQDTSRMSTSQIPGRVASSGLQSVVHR

[7] = molecular target: DYRK3 (human) (UniProt O43781)
[8] = molecular target: EPHA2 (human) (UniProt P29317)
[9] = molecular target: FGFR1 (human) (UniProt P11362)
[10] = molecular target: FLT1 (human) (UniProt P17948)
[11] = molecular target: GSK3B (human) (UniProt P49841)
[12] = molecular target: HIPK1 (human) (UniProt Q86Z02)
[13] = molecular target: HIPK3 (human) (UniProt Q9H422)
[14] = molecular target: IGF1R (human) (UniProt P08069)
[15] = molecular target: INSR (human) (UniProt P06213)
[16] = molecular target: IRAK4 (human) (UniProt Q9NWZ3)
[17] = molecular target: JAK2 JH1 JH2 (human) (UniProt O60674)
[18] = system: LCK (mouse); conditions: accession and sequence are those of the human protein
[19] = molecular target: MAP3K1 (human) (UniProt Q13233)
[20] = molecular target: MAP3K7 TAB1 (human) (UniProt Q15750+O43318)
Sequence of MAP3K7 TAB1 (human) (O43318 whole entry, looked up): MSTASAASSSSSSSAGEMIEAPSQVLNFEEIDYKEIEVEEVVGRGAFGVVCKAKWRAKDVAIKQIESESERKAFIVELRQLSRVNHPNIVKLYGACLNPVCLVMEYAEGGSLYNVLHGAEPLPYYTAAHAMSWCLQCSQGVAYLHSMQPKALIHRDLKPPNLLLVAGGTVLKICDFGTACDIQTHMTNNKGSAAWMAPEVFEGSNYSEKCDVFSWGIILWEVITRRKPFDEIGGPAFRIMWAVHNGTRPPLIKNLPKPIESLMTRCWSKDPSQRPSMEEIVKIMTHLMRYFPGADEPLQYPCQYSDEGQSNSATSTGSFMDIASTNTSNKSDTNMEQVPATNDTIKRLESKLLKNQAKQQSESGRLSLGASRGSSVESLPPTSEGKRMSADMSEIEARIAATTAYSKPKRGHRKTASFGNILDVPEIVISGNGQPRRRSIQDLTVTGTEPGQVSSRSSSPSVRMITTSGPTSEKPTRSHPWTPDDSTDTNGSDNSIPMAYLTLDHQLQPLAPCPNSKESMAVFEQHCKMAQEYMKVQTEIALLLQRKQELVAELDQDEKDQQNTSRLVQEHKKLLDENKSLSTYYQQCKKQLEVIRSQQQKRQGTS
Sequence of MAP3K7 TAB1 (human) (Q15750 whole entry, looked up): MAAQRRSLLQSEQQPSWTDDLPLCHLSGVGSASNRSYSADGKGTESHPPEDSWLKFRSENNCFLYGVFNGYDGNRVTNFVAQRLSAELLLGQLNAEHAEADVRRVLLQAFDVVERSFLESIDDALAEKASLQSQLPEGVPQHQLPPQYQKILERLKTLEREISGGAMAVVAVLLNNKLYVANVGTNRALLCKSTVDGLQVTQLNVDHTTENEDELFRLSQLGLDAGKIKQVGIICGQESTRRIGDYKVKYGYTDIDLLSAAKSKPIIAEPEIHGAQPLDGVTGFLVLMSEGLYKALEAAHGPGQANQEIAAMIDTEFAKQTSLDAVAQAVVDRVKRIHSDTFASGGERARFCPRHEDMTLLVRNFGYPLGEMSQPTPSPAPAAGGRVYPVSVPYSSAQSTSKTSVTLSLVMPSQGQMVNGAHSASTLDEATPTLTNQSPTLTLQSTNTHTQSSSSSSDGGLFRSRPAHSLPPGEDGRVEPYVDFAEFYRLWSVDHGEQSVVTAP

[21] = molecular target: MAPK11 (human) (UniProt Q15759)
[22] = molecular target: MAPK14 (human) (UniProt Q16539)
Sequence of MAPK14 (human) (Q16539 whole entry, looked up): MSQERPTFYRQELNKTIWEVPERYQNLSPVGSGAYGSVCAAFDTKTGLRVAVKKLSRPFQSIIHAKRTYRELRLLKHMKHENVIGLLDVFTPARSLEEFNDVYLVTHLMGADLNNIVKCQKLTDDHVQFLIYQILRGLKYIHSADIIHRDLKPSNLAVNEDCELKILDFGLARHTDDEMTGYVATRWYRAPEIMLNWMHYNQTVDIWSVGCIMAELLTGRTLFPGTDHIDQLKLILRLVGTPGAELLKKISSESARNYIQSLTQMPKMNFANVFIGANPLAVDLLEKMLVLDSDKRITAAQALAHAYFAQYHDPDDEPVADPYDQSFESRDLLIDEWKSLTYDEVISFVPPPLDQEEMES

[23] = molecular target: MAPK15 (human) (UniProt Q8TD08)
[24] = molecular target: MAPKAPK5 (human) (UniProt Q8IW41)
[25] = molecular target: MARK1 (human) (UniProt Q9P0L2)
[26] = molecular target: MELK (human) (UniProt Q14680)
[27] = molecular target: MINK1 (human) (UniProt Q8N4C8)
Sequence of MINK1 (human) (Q8N4C8 whole entry, looked up): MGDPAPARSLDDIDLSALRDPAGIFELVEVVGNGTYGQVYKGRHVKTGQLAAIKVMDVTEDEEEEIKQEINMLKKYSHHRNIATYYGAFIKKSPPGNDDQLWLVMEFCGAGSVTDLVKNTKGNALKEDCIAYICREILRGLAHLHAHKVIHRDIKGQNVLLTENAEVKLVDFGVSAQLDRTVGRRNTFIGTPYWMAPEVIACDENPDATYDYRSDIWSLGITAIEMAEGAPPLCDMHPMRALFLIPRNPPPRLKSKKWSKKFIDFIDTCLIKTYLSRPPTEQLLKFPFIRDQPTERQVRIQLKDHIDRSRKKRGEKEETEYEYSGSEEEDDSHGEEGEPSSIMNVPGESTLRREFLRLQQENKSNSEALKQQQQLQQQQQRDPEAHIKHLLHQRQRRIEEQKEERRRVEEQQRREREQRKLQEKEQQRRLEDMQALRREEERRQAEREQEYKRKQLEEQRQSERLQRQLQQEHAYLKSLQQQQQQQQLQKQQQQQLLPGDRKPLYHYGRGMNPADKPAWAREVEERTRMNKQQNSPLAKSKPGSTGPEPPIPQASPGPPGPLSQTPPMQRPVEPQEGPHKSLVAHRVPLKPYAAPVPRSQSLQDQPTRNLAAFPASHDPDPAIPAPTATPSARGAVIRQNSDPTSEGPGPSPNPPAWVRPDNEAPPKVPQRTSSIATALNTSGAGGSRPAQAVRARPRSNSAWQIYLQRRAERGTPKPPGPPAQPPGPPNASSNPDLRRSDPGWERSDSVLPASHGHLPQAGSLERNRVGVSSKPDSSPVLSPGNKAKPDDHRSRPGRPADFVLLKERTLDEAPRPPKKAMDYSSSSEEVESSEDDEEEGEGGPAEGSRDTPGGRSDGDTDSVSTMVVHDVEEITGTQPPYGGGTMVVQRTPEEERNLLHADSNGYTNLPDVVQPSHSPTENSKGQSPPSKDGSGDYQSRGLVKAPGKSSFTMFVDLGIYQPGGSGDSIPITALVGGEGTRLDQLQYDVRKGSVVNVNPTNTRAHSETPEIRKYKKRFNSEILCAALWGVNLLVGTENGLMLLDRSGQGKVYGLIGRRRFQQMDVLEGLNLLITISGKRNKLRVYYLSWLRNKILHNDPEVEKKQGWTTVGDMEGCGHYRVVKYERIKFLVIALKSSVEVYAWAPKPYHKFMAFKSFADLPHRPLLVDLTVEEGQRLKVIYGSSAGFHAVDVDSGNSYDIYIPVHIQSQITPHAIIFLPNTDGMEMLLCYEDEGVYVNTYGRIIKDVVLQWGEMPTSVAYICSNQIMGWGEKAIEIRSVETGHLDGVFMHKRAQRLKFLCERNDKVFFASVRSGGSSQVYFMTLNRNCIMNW

[28] = molecular target: NTRK1 (human) (UniProt P04629)
[29] = molecular target: PRKCZ (human) (UniProt Q05513)
[30] = molecular target: RIPK2 (human) (UniProt O43353)
[31] = system: ROCK2 (rat); conditions: accession and sequence are those of the human protein
[32] = molecular target: RPS6KA3 KD1 KD2 (human) (UniProt P51812)
[33] = molecular target: SRC (human) (UniProt P12931)
[34] = molecular target: STK11 CAB39 STRADA (human) (UniProt Q9Y376+Q7RTN6+Q15831)
Sequence of STK11 CAB39 STRADA (human) (Q15831 whole entry, looked up): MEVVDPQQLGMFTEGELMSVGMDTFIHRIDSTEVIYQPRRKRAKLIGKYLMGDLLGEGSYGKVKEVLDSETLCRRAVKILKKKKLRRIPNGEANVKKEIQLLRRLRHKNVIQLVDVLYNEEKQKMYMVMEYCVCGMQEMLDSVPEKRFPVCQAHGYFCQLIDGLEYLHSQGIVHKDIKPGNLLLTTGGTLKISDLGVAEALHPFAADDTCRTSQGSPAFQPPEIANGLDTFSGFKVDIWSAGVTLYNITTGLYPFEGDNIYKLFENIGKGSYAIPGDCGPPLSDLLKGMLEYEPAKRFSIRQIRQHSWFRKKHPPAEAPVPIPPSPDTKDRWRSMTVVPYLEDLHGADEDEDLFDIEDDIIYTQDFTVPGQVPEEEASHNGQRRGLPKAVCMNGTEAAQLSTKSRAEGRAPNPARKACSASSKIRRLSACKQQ
Sequence of STK11 CAB39 STRADA (human) (Q7RTN6 whole entry, looked up): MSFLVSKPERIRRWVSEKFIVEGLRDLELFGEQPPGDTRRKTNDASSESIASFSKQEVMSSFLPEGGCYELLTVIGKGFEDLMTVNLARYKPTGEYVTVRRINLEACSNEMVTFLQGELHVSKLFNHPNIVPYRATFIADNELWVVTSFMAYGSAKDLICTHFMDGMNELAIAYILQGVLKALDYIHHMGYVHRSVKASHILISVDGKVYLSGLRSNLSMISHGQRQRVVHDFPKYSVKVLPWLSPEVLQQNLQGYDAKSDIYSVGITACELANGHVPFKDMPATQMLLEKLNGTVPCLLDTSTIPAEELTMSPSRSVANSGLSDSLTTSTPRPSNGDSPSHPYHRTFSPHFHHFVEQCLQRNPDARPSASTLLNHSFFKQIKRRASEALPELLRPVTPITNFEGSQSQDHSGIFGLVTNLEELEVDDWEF
Sequence of STK11 CAB39 STRADA (human) (Q9Y376 whole entry, looked up): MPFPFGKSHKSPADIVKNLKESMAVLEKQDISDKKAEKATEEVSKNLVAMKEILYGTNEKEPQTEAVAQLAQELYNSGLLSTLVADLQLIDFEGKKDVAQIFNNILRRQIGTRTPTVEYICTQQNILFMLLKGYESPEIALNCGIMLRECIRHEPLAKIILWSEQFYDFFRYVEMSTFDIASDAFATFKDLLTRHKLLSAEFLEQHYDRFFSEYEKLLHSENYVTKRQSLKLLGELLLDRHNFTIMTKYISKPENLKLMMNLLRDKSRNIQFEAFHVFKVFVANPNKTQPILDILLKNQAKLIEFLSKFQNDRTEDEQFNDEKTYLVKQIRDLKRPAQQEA

[35] = molecular target: TAOK1 (human) (UniProt Q7L7X3)

Sequence of CSK (human) (P41240 whole entry, looked up): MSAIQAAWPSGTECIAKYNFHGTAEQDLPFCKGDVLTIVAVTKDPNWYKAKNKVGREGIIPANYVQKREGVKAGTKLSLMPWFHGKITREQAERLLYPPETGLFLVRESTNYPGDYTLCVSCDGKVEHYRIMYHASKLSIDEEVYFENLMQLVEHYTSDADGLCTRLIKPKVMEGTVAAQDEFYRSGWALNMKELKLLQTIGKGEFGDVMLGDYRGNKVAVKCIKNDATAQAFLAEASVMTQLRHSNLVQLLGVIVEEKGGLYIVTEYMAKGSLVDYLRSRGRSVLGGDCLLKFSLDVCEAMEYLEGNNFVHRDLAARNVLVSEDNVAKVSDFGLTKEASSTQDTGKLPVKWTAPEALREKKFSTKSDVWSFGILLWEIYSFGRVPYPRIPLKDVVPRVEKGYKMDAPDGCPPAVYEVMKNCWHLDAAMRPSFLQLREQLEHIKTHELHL

c1ccc2c(-c3cnn4cc(-c5ccc(N6CCNCC6)cc5)cnc34)ccnc2c1
residual activity ([1]; compound 0.1 µM): 77% | residual activity ([1]; compound 1.0 µM): 91% | residual activity ([1]; compound 10.0 µM): 58% | residual activity ([2]; compound 0.1 µM): 88% | residual activity ([2]; compound 1.0 µM): 85% | residual activity ([2]; compound 10.0 µM): 57% | residual activity ([3]; compound 0.1 µM): 43% | residual activity ([3]; compound 1.0 µM): 13% | residual activity ([3]; compound 10.0 µM): 8% | residual activity ([4]; compound 0.1 µM): 67% | residual activity ([4]; compound 1.0 µM): 21% | residual activity ([4]; compound 10.0 µM): 5% | residual activity ([5]; compound 0.1 µM): 95% | residual activity ([5]; compound 1.0 µM): 103% | residual activity ([5]; compound 10.0 µM): 72% | residual activity ([6]; compound 0.1 µM): 91% | residual activity ([6]; compound 1.0 µM): 69% | residual activity ([6]; compound 10.0 µM): 22% | residual activity ([7]; compound 0.1 µM): 86% | residual activity ([7]; compound 1.0 µM): 89% | residual activity ([8]; compound 0.1 µM): 81% | residual activity ([8]; compound 1.0 µM): 81% | residual activity ([8]; compound 10.0 µM): 50% | residual activity ([9]; compound 0.1 µM): 69% | residual activity ([9]; compound 1.0 µM): 20% | residual activity ([9]; compound 10.0 µM): 8% | residual activity ([10]; compound 0.1 µM): 48% | residual activity ([10]; compound 10.0 µM): 0% | residual activity ([11]; compound 0.1 µM): 81% | residual activity ([11]; compound 1.0 µM): 83% | residual activity ([11]; compound 10.0 µM): 62% | residual activity ([12]; compound 0.1 µM): 97% | residual activity ([12]; compound 1.0 µM): 99% | residual activity ([12]; compound 10.0 µM): 85% | residual activity ([13]; compound 0.1 µM): 104% | residual activity ([13]; compound 10.0 µM): 90% | residual activity ([14]; compound 0.1 µM): 112% | residual activity ([14]; compound 1.0 µM): 99% | residual activity ([14]; compound 10.0 µM): 89% | residual activity ([15]; compound 0.1 µM): 105% | residual activity ([15]; compound 1.0 µM): 107% | residual activity ([15]; compound 10.0 µM): 93% | residual activity ([16]; compound 0.1 µM): 88% | residual activity ([16]; compound 1.0 µM): 91% | residual activity ([16]; compound 10.0 µM): 53% | residual activity ([17]; compound 0.1 µM): 100% | residual activity ([17]; compound 1.0 µM): 104% | residual activity ([17]; compound 10.0 µM): 79% | residual activity ([18]; compound 0.1 µM): 81% | residual activity ([18]; compound 1.0 µM): 40% | residual activity ([18]; compound 10.0 µM): 7% | residual activity ([19]; compound 0.1 µM): 90% | residual activity ([19]; compound 1.0 µM): 83% | residual activity ([19]; compound 10.0 µM): 60% | residual activity ([20]; compound 0.1 µM): 84% | residual activity ([20]; compound 1.0 µM): 44% | residual activity ([20]; compound 10.0 µM): 13% | residual activity ([21]; compound 1.0 µM): 104% | residual activity ([21]; compound 10.0 µM): 96% | residual activity ([22]; compound 0.1 µM): 78% | residual activity ([22]; compound 1.0 µM): 84% | residual activity ([22]; compound 10.0 µM): 75% | residual activity ([23]; compound 0.1 µM): 87% | residual activity ([23]; compound 1.0 µM): 49% | residual activity ([23]; compound 10.0 µM): 11% | residual activity ([24]; compound 0.1 µM): 89% | residual activity ([24]; compound 1.0 µM): 100% | residual activity ([24]; compound 10.0 µM): 60% | residual activity ([25]; compound 0.1 µM): 88% | residual activity ([25]; compound 1.0 µM): 54% | residual activity ([25]; compound 10.0 µM): 14% | residual activity ([26]; compound 0.1 µM): 81% | residual activity ([26]; compound 1.0 µM): 54% | residual activity ([26]; compound 10.0 µM): 18% | residual activity ([27]; compound 0.1 µM): 74% | residual activity ([27]; compound 1.0 µM): 15% | residual activity ([27]; compound 10.0 µM): 4% | residual activity ([28]; compound 0.1 µM): 87% | residual activity ([28]; compound 1.0 µM): 71% | residual activity ([28]; compound 10.0 µM): 38% | residual activity ([29]; compound 0.1 µM): 88% | residual activity ([29]; compound 1.0 µM): 93% | residual activity ([29]; compound 10.0 µM): 55% | residual activity ([30]; compound 0.1 µM): 52% | residual activity ([30]; compound 1.0 µM): 2% | residual activity ([30]; compound 10.0 µM): 3% | residual activity ([31]; compound 0.1 µM): 98% | residual activity ([31]; compound 1.0 µM): 86% | residual activity ([31]; compound 10.0 µM): 85% | residual activity ([32]; compound 0.1 µM): 73% | residual activity ([32]; compound 1.0 µM): 69% | residual activity ([32]; compound 10.0 µM): 57% | residual activity ([33]; compound 1.0 µM): 52% | residual activity ([33]; compound 10.0 µM): 16% | residual activity ([34]; compound 0.1 µM): 109% | residual activity ([34]; compound 1.0 µM): 98% | residual activity ([34]; compound 10.0 µM): 80% | residual activity ([35]; compound 0.1 µM): 102% | residual activity ([35]; compound 1.0 µM): 110% | residual activity ([35]; compound 10.0 µM): 79%

CCNc1nc(Nc2cc(F)c(C(=O)N3CCOCC3)cc2OC)ncc1C(F)(F)F
residual activity ([1]; compound 1.0 µM): 92% | residual activity ([1]; compound 10.0 µM): 95% | residual activity ([2]; compound 1.0 µM): 82% | residual activity ([2]; compound 10.0 µM): 50% | residual activity ([3]; compound 1.0 µM): 28% | residual activity ([3]; compound 10.0 µM): 7% | residual activity ([4]; compound 1.0 µM): 50% | residual activity ([4]; compound 10.0 µM): 9% | residual activity ([5]; compound 1.0 µM): 101% | residual activity ([5]; compound 10.0 µM): 94% | residual activity ([6]; compound 1.0 µM): 98% | residual activity ([6]; compound 10.0 µM): 81% | residual activity ([7]; compound 1.0 µM): 96% | residual activity ([7]; compound 10.0 µM): 58% | residual activity ([8]; compound 1.0 µM): 107% | residual activity ([8]; compound 10.0 µM): 86% | residual activity ([9]; compound 1.0 µM): 118% | residual activity ([9]; compound 10.0 µM): 95% | residual activity ([10]; compound 1.0 µM): 62% | residual activity ([10]; compound 10.0 µM): 13% | residual activity ([11]; compound 1.0 µM): 90% | residual activity ([11]; compound 10.0 µM): 83% | residual activity ([12]; compound 1.0 µM): 78% | residual activity ([12]; compound 10.0 µM): 35% | residual activity ([13]; compound 1.0 µM): 107% | residual activity ([13]; compound 10.0 µM): 98% | residual activity ([14]; compound 1.0 µM): 32% | residual activity ([14]; compound 10.0 µM): 38% | residual activity ([15]; compound 1.0 µM): 19% | residual activity ([15]; compound 10.0 µM): 2% | residual activity ([16]; compound 1.0 µM): 103% | residual activity ([16]; compound 10.0 µM): 83% | residual activity ([17]; compound 1.0 µM): 72% | residual activity ([17]; compound 10.0 µM): 35% | residual activity ([18]; compound 1.0 µM): 108% | residual activity ([18]; compound 10.0 µM): 101% | residual activity ([19]; compound 1.0 µM): 104% | residual activity ([19]; compound 10.0 µM): 99% | residual activity ([20]; compound 1.0 µM): 17% | residual activity ([20]; compound 10.0 µM): 2% | residual activity ([21]; compound 1.0 µM): 98% | residual activity ([21]; compound 10.0 µM): 91% | residual activity ([22]; compound 1.0 µM): 89% | residual activity ([22]; compound 10.0 µM): 101% | residual activity ([23]; compound 1.0 µM): 96% | residual activity ([23]; compound 10.0 µM): 78% | residual activity ([24]; compound 1.0 µM): 80% | residual activity ([24]; compound 10.0 µM): 55% | residual activity ([25]; compound 1.0 µM): 97% | residual activity ([25]; compound 10.0 µM): 58% | residual activity ([26]; compound 1.0 µM): 90% | residual activity ([26]; compound 10.0 µM): 43% | residual activity ([27]; compound 1.0 µM): 115% | residual activity ([27]; compound 10.0 µM): 93% | residual activity ([28]; compound 1.0 µM): 81% | residual activity ([28]; compound 10.0 µM): 63% | residual activity ([29]; compound 1.0 µM): 99% | residual activity ([29]; compound 10.0 µM): 83% | residual activity ([30]; compound 1.0 µM): 86% | residual activity ([30]; compound 10.0 µM): 74% | residual activity ([31]; compound 1.0 µM): 85% | residual activity ([31]; compound 10.0 µM): 72% | residual activity ([32]; compound 1.0 µM): 34% | residual activity ([32]; compound 10.0 µM): 9% | residual activity ([33]; compound 1.0 µM): 87% | residual activity ([33]; compound 10.0 µM): 83% | residual activity ([34]; compound 1.0 µM): 89% | residual activity ([34]; compound 10.0 µM): 86% | residual activity ([35]; compound 1.0 µM): 111% | residual activity ([35]; compound 10.0 µM): 102%
